The values that follow come from EP1048669A1, “CARBAPENEM DERIVATIVES” (priority 1997, dated 1999).

One may read the IC50 as the concentration that inhibits the measured activity by half.

Molecules are shown by their SMILES. Structures can show the parent of a compound that is named as a salt. Where two headings read alike, the source gives them in different places.

Data set [1] concerns the target T1, Metallo-β-lactamase encoded by plasmid pMS350 (Serratia marcescens, UniProt P52699).
T1 construct: made in house
Briefly: β-Lactamase inhibition test (Nitrocefin substrate). Format: biochemical, Pseudomonas aeruginosa GN17203. The note with it: Nitrocefin 37.5 µg/ml, 30°C for 15 minutes, Zn2+ 100 µM, MOPS buffer. On the procedure: Metallo-β-lactamase encoded by plasmid pMS350 originated from Pseudomonas aeruginosa GN17203 was purified and used for this test. The enzyme previously gave a single protein band on SDS/PAGE (specific activity: 70 U/mg protein). The enzymatic activity (U) was measured by reacting it with 100 µM of imipenem dissolved in 10 mM 3-morpholinopropanesulfonate buffer (pH 7.0) (hereinafter referred to as MOPS buffer) containing 100 µM zinc chloride, and the quantity of enzyme capable of hydrolyzing 1 µM of imipenem per one minute at a reaction temperature of 30°C was defined as 1 U.
As the screening substrate of this test, Nitrocefin®, OXOID) was used. In each well of a 96 well plate, 1 µl of a test agent dissolved in 10 mM MOPS buffer and 25 µl of metallo-β-lactamase preparation (enzymatic activity: 3-6 mU/ml) were mixed, and then 75 µl of 50 µg/ml Nitrocefin® was added and mixed to create a final substrate concentration of 37.5 µg/ml. The enzymic reaction was carried out at 30°C for 15 minutes and followed by measuring the quantity of hydrolyzed Nitrocefin™ at a wavelength of 492 nm by means of a microplate reader. In this screening system, the operation was carried out in the presence of Zn^2+ (100 µM) in order to eliminate the inhibitory effect due to chelating action. […]

Data set [2] deals with male SD rats. Kind of data set: Toxicity test on the central nervous system (administration to the right ventricle of the brain). Type of data set: in vivo. The note with it: observed thirty minutes. The source says: A chronic guide cannula was inserted into the right ventricle of the brain of 7-weeks old male SD rats (n = 5) and immobilized with a dental resin. […] After the administration, behavior of the animal was visually examined in an observing cage for thirty minutes.

The nature of data set [3]: In vivo stability test (TLC bioautography of urine). Further details: species or system rhesus monkey. On the procedure:
The compound of Example 1 was used as a representative compound, and the compound of Example 139B of Document A was used as a comparative compound. A test agent (10 mg/kg) was intravenously administered to 4-years old male rhesus monkey (body weight 5.48 kg) over a period of 5 minutes. The urine was collected over a period of 0-1 hour and over a period of 1-2 hours, both after the administration. The urine samples were stored at an ice-cooled temperature. A TLC plate (silica gel 60F-254, manufactured by Merck Co.) which had been activated just before use at 120°C for 30 minutes and spotted with 4 µl of each urine sample, was developed with a solvent in a closed vessel (developing solvent: CH3CN/H2O/CH3COOH/25% NH4OH = 45:30:6:2; pH 5.3). After completion of the development, the TLC plate was taken out of the vessel, and dried. An AM-1 medium (manufactured by Difco Co.) containing a test strain (B. subtilis ATCC 12432) was contacted with the silica gel surface of the TLC plate at ambient temperature for 30 minutes. After stripping off the TLC plate, the medium was cultured at 37°C overnight. Rf value of a clear zone formed by the growth inhibition of test strain was determined. As control, the test compound was dissolved in 10 mmol MOPS buffer (pH 7) at the concentration of 250 µg/ml, and 2 µl of this solution was spotted on a TLC plate.

The test system of data set [4] is MRSA BB6294. Briefly: In vitro antibacterial activity, agar plate dilution method (MIC), MRSA conditions. Format: cell-based, methicillin-resistant Staphylococcus aureus. The note with it: Staphylococcus aureus, read-out: Minimum growth inhibitory concentrations (MIC). On the procedure:
(§1) A Mueller Hinton agar (MH agar) was inoculated with a platinum loop quantity (the quantity of inoculated bacterium: 10^6 CFU/ml) of each test bacterial strain which had been cultured overnight in Mueller Hinton broth. The culture medium contained an antibacterial agent at a varied concentration. After a culture at 37°C for 16 hours, the minimum growth inhibitory concentration (MIC: µg/ml) of the compound of this invention was measured. When MRSA was used as the test strain, a medium containing 2% sodium chloride was used as the test medium in accordance with the above-mentioned agar plate dilution method, and the minimum growth inhibitory concentration (MIC: µg/ml) of the compound of this invention was measured under culture conditions of 35°C, 48 hours.

Data set [5] has as its system P. aeruginosa IFO-3445. Kind of data set: In vitro antibacterial activity, agar plate dilution method (MIC). Type of data set: cell-based. The note with it: Pseudomonas aeruginosa, read-out: Minimum growth inhibitory concentrations (MIC). On the procedure:
as §1

Data set [6] has as its system E. coli NIHJ JC2. The data set is described as above. Type of data set: cell-based. The note with it: Escherichia coli, read-out: Minimum growth inhibitory concentrations (MIC). On the procedure: as §1
The subject of data set [7] is male ICR mice. Kind of data set: Acute toxicity test (single intravenous administration). Format: in vivo. The note with it: observed over five days. On the procedure: The compound of Example 24 was used as a representative compound. According to "Explanation Book for GLP Standard and Toxicity Test Guideline" (supervised by Department of Examination, Bureau of Pharmacy, Ministry of Health and Welfare; published by Yakuji Shimpou-sha), a test compound was diluted with distilled water for injection use until the agent concentration reached 60.75 mg/ml and once administered intravenously to the tail vein of 6-weeks old male ICR mice at an administration rate of 1 ml/min. After the administration, the state of death and the general motility were observed over five days.

Data set [8] relates to Pseudomonas aeruginosa. The note with it: especially against Pseudomonas aeruginosa; cited from earlier work.
Where [9] appears, read: 400 µg/rat into right ventricle of the brain.
Where [10] appears, read: 200 µg/rat into right ventricle of the brain.
Where [11] appears, read: mouse, 500 mg/kg intravenously once.
The mark [12] stands for this setting: mouse, 1,000 mg/kg intravenously once.
[13] abbreviates: mouse, 1,500 mg/kg intravenously once.

T1 sequence (P52699 19-246): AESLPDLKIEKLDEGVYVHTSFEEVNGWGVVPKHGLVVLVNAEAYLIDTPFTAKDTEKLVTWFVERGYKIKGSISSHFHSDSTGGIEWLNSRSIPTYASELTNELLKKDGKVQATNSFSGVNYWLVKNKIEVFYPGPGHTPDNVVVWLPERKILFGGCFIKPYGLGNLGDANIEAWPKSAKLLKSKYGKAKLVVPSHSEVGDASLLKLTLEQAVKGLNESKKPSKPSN

Regarding `C=CCOC(=O)N(C)Cc1ccc([C@H]2C[C@H](SC(C)=O)CN2C(=O)OCC=C)cc1` [Compound of Referential. Ex. 1, (2R,4S)-4-Acetylthio-1-allyloxycarbonyl-2-(4-N-allyloxycarbonyl-N-methylaminomethyl)phenylpyrrolidine], the half-inhibitory concentration (IC50) in data set [1] was under 100 nM.

For `CNCc1ccc([C@H]2C[C@H](SC3=C(C(=O)O)N4C(=O)[C@H]([C@@H](C)O)[C@H]4[C@H]3C)CN2)cc1.Cl` [Example 1, (1R,5S,6S)-2-[(3S,5R)-5-[4-N-methylaminomethylphenyl]-pyrrolidin-3-ylthio]-6-[(R)-1-hydroxyethyl]-1-methyl-1-carbapen-2-em-3-carboxylic acid hydrochloride], in data set [2] (setting [9]), the “Number of convulsed cases” value is recorded as 0/5 and the “Number of dead cases” value is reported as 0/5. In data set [3] (control: test compound in 10 mmol MOPS buffer (pH 7), 250 µg/ml, spotted on TLC plate, clear zone with B. subtilis ATCC 12432), the “Rf value, Control” value was 0.40. Moreover, in data set [3] (rhesus monkey, 10 mg/kg intravenously, urine 0-1 hr, TLC clear zone with B. subtilis ATCC 12432), the “Rf value, Accumulated urine during 0-1 hr after administration” value is recorded as 0.40. The “Rf value, Accumulated urine during 1-2 hrs after administration” value in data set [3] (rhesus monkey, 10 mg/kg intravenously, urine 1-2 hrs, TLC clear zone with B. subtilis ATCC 12432) came to 0.40.

Consider `C[C@H](N)c1ccc([C@H]2C[C@H](SC3=C(C(=O)O)N4C(=O)[C@H]([C@@H](C)O)[C@H]4[C@H]3C)CN2)cc1` [Example 14, (1R,5S,6S)-2-[(3S,5R)-5-[4-[(1S)-aminoethyl]phenyl]-pyrrolidin-3-ylthio]-6-[(R)-1-hydroxyethyl]-1-methyl-1-carbapen-2-em-3-carboxylic acid hydrochloride], for which the MIC in data set [4] (MRSA, 48 h) came out at 3.13 µg/mL; in data set [5] (IFO3445, 16 h), 0.1 µg/mL; in data set [6] (NIHJJC2, 16 h) it was 0.025 µg/mL. In data set [2] (setting [10]), the “Number of convulsed cases” value is recorded as 0/5. Moreover, in data set [2] (setting [10]), the “Number of dead cases” value is on record as 0/5.

Turning to `C[C@@H](N)c1ccc([C@H]2C[C@H](SC3=C(C(=O)O)N4C(=O)[C@H]([C@@H](C)O)[C@H]4[C@H]3C)CN2)cc1` [Example 15, (1R,5S,6S)-2-[(3S,5R)-5-[4-[(1R)-aminoethyl]phenyl]-pyrrolidin-3-ylthio]-6-[(R)-1-hydroxyethyl]-1-methyl-1-carbapen-2-em-3-carboxylic acid hydrochloride], the MIC in data set [4] (MRSA, 48 h) turned out to be 3.13 µg/mL; in data set [5] (IFO3445, 16 h) it was 0.2 µg/mL; in data set [6] (NIHJJC2, 16 h) it was 0.025 µg/mL. Also, the “Number of convulsed cases” value in data set [2] (setting [10]) is recorded as 0/5. The “Number of dead cases” value in data set [2] (setting [10]) is listed as 0/5.

On to `C[C@@H](O)[C@H]1C(=O)N2C(C(=O)O)=C(S[C@@H]3CN[C@@H](c4ccc(C(N)CC(N)=O)cc4)C3)[C@H](C)[C@H]12.Cl` (stereo partly drawn) [Example 24, (1R,5S,6S)-2-[(3S,5R)-5-[4-(1-amino-2-carbamoylethyl)-phenyl]pyrrolidin-3-ylthio]-6-[(R)-1-hydroxyethyl]-1-methyl-1-carbapen-2-em-3-carboxylic acid hydrochloride], for which the “Motility and general symptoms” value in data set [7] (setting [11]), in data set [7] (setting [12]) and in data set [7] (setting [13]) was “No abnormality” in each case. The “Number of alive animals” value in data set [7] (setting [11]) is 2/2; in data set [7] (setting [12]), 5/5; in data set [7] (setting [13]), 5/5.

For `C[C@@H](O)[C@H]1C(=O)N2C(C(=O)O)=C(S[C@@H]3CN[C@@H](c4csc(CN)c4)C3)[C@H](C)[C@H]12.Cl` [Example 32, (1R,5S,6S)-2-[(3S,5R)-5-(2-aminomethyl-4-thienyl)-pyrrolidin-3-ylthio]-6-[(R)-1-hydroxyethyl]-1-methyl-1-carbapen-2-em-3-carboxylic acid hydrochloride], the MIC is 3.13 µg/mL in data set [4] (MRSA BB6294, medium containing 2% sodium chloride, 35°C, 48 hours); 0.39 µg/mL in data set [5] (IFO3445, P. aeruginosa IFO-3445, MH agar, 10^6 CFU/ml, 37°C for 16 hours); 0.025 µg/mL in data set [6] (NIHJJC2, E. coli NIHJ JC2, MH agar, 10^6 CFU/ml, 37°C for 16 hours).

As for `C[C@@H](O)[C@H]1C(=O)N2C(C(=O)O)=C(SCCNC=N)C[C@H]12.O` [Imipenem, (5R,6S)-3-[2-(formimidoylamino)-ethylthio]-6-[(R)-1-hydroxyethyl]-7-oxo-1-azabicyclo[3.2.0]hepta-2-ene-2-carboxylic acid monohydrate], the “enhanced antibacterial activity compared to the parent antibiotic, thienamycin” value in data set [8] is listed as 2-4 times.
